# Laboratory results published in publication PMC9774488, “The ER Aminopeptidases, ERAP1 and ERAP2, synergize to self-modulate their respective activities” (Frontiers in Immunology, 2022).
# Where a SMILES comes first, the peptide text is derived from it.
# Biological target: ERAP2 (Homo sapiens, UniProt Q6P179)
# Experiment: biochemical
# Experimental: Substrate hydrolysis was assessed by measuring the fluorescence of free AMC at 14-s intervals, at 380nm and 460 nm excitation and emission wavelengths, respectively, in a Fluostar Optima Multiwave Plate Reader (BMG Labtec, Ortenberg, Germany).
# Chain of ERAP2 (Q6P179 whole entry): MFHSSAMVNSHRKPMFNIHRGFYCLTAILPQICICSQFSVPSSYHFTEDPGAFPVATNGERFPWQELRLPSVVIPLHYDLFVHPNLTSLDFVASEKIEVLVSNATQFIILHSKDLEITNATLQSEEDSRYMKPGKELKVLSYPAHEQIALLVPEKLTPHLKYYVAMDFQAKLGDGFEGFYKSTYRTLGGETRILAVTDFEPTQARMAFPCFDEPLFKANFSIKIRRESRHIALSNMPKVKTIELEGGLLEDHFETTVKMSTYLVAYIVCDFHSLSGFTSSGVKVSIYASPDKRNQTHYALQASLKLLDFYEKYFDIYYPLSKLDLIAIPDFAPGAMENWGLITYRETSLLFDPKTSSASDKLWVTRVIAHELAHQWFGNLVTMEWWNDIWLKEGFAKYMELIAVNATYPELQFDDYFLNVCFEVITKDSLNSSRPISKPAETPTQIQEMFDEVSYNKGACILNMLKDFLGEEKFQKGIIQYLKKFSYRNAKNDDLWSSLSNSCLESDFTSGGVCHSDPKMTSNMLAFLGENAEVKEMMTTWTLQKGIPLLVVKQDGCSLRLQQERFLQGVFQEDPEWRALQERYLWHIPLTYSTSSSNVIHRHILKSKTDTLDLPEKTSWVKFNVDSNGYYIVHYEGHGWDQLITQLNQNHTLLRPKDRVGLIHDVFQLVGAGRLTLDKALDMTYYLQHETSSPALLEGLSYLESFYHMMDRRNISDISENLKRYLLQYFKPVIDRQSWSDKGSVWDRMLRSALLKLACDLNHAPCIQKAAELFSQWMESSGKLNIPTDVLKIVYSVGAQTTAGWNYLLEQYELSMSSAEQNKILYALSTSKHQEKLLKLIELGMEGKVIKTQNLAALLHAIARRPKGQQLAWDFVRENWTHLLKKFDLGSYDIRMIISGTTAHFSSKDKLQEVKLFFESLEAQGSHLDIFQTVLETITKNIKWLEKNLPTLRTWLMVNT
row,IC50,Compound
1,18.6 µM,CC[C@H](C)[C@H](NC(=O)[C@H](CCC(N)=O)NC(=O)[C@H](Cc1ccccc1)NC(=O)[C@@H](NC(=O)[C@H](CC(=O)O)NC(=O)CNC(=O)[C@H](Cc1ccc(O)cc1)NC(=O)[C@H](CCCNC(=N)N)NC(=O)[C@H](CCCNC(=N)N)NC(=O)[C@H](C)NC(=O)[C@@H](N)CC(C)C)C(C)C)C(=O)O (H-LARRYGDVFQI-OH)
2,2.88 µM,CC(C)C[C@H](NC(=O)[C@H](Cc1ccc(O)cc1)NC(=O)[C@@H]1CCCN1C(=O)[C@H](CO)NC(=O)[C@H](CCCCN)NC(=O)CNC(=O)[C@H](Cc1ccc(O)cc1)NC(=O)[C@H](CCCNC(=N)N)NC(=O)[C@H](C)NC(=O)[C@H](CC(C)C)NC(=O)[C@@H](N)CO)C(=O)N[C@@H](Cc1ccc(O)cc1)C(=O)O (H-SLARYGKSPYLY-OH)
3,13.2 µM,CC(C)C[C@H](NC(=O)[C@H](CCCCN)NC(=O)[C@H](CC(=O)O)NC(=O)CNC(=O)[C@H](Cc1ccccc1)NC(=O)[C@H](CCCNC(=N)N)NC(=O)[C@H](CCCNC(=N)N)NC(=O)[C@H](CC(C)C)NC(=O)[C@@H](N)CCC(N)=O)C(=O)N[C@@H](CC(N)=O)C(=O)N[C@@H](Cc1ccccc1)C(=O)O (H-QLRRFGDKLNF-OH)
